Data taken from patent publication US20230102590A1, “USE OF POLYETHER COMPOUND” (Senju Pharmaceutical Co., Ltd., priority 2020, published 2023).
Like-named read-outs stand apart in the source and are kept apart here.

Legend:
[1] = Stability test: change in pH of poloxamer and/or polyethylene glycol solutions stored at 60° C. for four weeks; conditions: for concentration of additive able to stabilize PEG 4000 / concentration of additive able to stabilize poloxamer 407 / stabilization of poloxamer 407 or PEG 4000 by the additive alone: pH change
Protocol: An additional component was added to an aqueous solution comprising poloxamer and/or polyethylene glycol, and the change in the viscosity and pH was measured over time under harsh conditions of 60° C. The following were used as the poloxamer, polyethylene glycol, and buffer. • Poloxamer 407 (Kolliphor P 407, BASF, Germany) • PEG 4000 (Macrogol 4000, NOF, Tokyo) • Buffer: 0.9% boric acid, 0.1% borax
The pH was adjusted with hydrochloric acid or sodium hydroxide. […] A polyethylene eye drop bottle was filled with 5 mL of each filtrate and stored in a 60° C. thermostatic vessel. The pH and viscosity of the test solutions as of preparation and at four weeks after storage were measured. The viscosity was measured using a rotational viscometer (Toki Sangyo (Osaka) Model TVE-25 viscometer type L, 25° C., 100 rpm). The pH as of the preparation was measured in the test solution before transferring to an eye drop bottle for storage.

[2] = Protocol: Fujifilm Wako Pure Chemical
The poorly soluble compound content in the recovered filtrate was measured by liquid chromatography specified below (Shimadzu (Kyoto), high performance liquid chromatograph Prominence).
As the standard product of triamcinolone acetonide, a reagent from the Pharmaceutical and Medical Device Regulatory Science Society of Japan (Japan) was used. • 50 μL of sample solution and standard solution was measured by liquid chromatography under the following conditions.
Column temperature: constant temperature of about 40° C. Mobile phase A: 0.1% trifluoroacetic acid/10% acetonitrile solution Mobile phase B: 0.1% trifluoroacetic acid/90% acetonitrile solution Delivery of mobile phase: the ratio of mixture of mobile phase A and mobile phase B was changed as follows to control the linear concentration gradient.
Detergent: 50% acetonitrile solution Flow rate: 1.0 mL/min Temperature within autosampler: 5° C.
The following conditions were tested as additives to a poorly soluble compound
wherein SA+B=solubility of a poorly soluble compound in a composition comprising poloxamer 407 and PEG 4000 SB=solubility of a poorly soluble compound in a composition comprising PEG 4000, but not poloxamer 407 SA=solubility of a poorly soluble compound in a composition comprising poloxamer 407, but not PEG 4000 S0=solubility of a poorly soluble compound in a composition that comprises neither poloxamer 407 nor PEG 4000.
The solubility in a composition of PEG and poloxamer was measured in the same manner described above for additional compounds.
For cabozantinib and telmisartan, the pH of the aqueous solution with the base composition described above was changed to 7.4. For rebamipide, the aqueous solution with the base composition was as follow. • 0.05% sodium hydrogen phosphate hydrate • 0.45% sodium dihydrogen phosphate hydrate • sodium hydroxide and hydrochloric acid (suitable amount was added to adjust the pH to 6.0)
Additional compounds were measured in the same manner described above.
Cabozantinib and telmisartan were tested with a solution adjusted to a pH of 7.4. Rebamipide was tested with a solution adjusted to a pH of 6.0. Other compounds were tested with a solution adjusted to a pH of 7.0.

[3] = Basic solubility at 25° C. in ethanol, PEG 400, propylene glycol (PG) and buffer solution; solubility ratio non-aqueous solvent / buffer solution; conditions: for Solubility, Buffer solution: phosphate buffer pH 7.0
Protocol: In this regard, the buffer solution had the following composition: • 0.2% sodium hydrogen phosphate hydrate • 0.3% sodium dihydrogen phosphate hydrate • sodium hydroxide and hydrochloric acid (suitable amount was added to adjust the pH to 7.0; however, pH was adjusted to 7.4 for cabozantinib and telmisartan).
However, the following composition was used for rebamipide instead: • 0.05% sodium hydrogen phosphate hydrate • 0.45% sodium dihydrogen phosphate hydrate • sodium hydroxide and hydrochloric acid (suitable amount was added to adjust the pH to 6.0).
Each compound was measured in the same manner described above. In the Table, the molecular weight and Log P values are reference values (or values calculated from reference values).

[4] = 25° C., buffer pH 7.0 (pH 7.4 for cabozantinib and telmisartan; pH 6.0 for rebamipide)

Compound | Solubility scale factor at 5° C. 30% PEG 4000/10% poloxamer 407 [2] | Solubility scale factor at 15° C. 30% PEG 4000/10% poloxamer 407 [2] | Solubility ratio of solvent with respect to buffer solution Ethanol/buffer solution [3, 4] | Solubility ratio of solvent with respect to buffer solution PEG400/buffer solution [3, 4] | Solubility ratio of solvent with respect to buffer solution PG/buffer solution [3, 4] | further results
O=S([O-])([O-])=S.[Na+].[Na+] [Sodium thiosulfate] | – | – | – | – | – | concentration of additive able to stabilize PEG 4000 ([1]; four weeks at 60° C.): 0.01%; concentration of additive able to stabilize poloxamer 407 ([1]; four weeks at 60° C.): 0.03%
CNC(=O)c1cc(Oc2ccc(NC(=O)Nc3ccc(Cl)c(C(F)(F)F)c3)c(F)c2)ccn1 [Regorafenib] | 182.78 | 114.87 | 2004388.60 | 7691626.26 | 1186517.97 | Solubility, Buffer solution ([3]; 25° C.): 0.0000004174%
OC[C@@H](O)[C@@H](O)[C@H](O)[C@H](O)CO [Mannitol] | – | – | – | – | – | stabilization of poloxamer 407 or PEG 4000 by the additive alone ([1]; four weeks at 60° C.): could not stabilize poloxamer 407 or PEG 4000
Brc1cccc2c1oc1ccccc12 [4-bromodibenzofuran] | – | – | – | – | – | state of the test composition [2]: converted into gel
C=C(C)[C@H]1Cc2c(ccc3c2O[C@@H]2COc4cc(OC)c(OC)cc4[C@@H]2C3=O)O1 [Rotenone] | – | – | 30294.14 | 368226.98 | 13159.33 | Solubility, PEG400 ([3]; 25° C.): 3.314%; Solubility, PG (propylene glycol) ([3]; 25° C.): 0.1184%
O=C(O)CN(CCN(CC(=O)O)CC(=O)O)CC(=O)O [EDTA, ethylenediaminetetraacetic acid] | – | – | – | – | – | stabilization effect on low molecular weight PEG 400 ([1]; 0.1% additive): exhibited a stabilization effect; amount of PEG 4000 that the additive was able to stabilize ([1]; 0.1% additive, four weeks at 60° C.): up to 20%; concentration of additive able to stabilize PEG 4000 ([1]; four weeks at 60° C.): ≥ 0.1%; concentration of additive able to stabilize poloxamer 407 ([1]; four weeks at 60° C.): 0.01%
CCC(C)n1ncn(-c2ccc(N3CCN(c4ccc(OCC5COC(Cn6cncn6)(c6ccc(Cl)cc6Cl)O5)cc4)CC3)cc2)c1=O (centres unmarked) [Itraconazole] | – | – | – | – | – | Solubility, Buffer solution ([3]; 25° C.): below the detection limit
CC1(C)O[C@@H]2C[C@H]3[C@@H]4CCC5=CC(=O)C=C[C@]5(C)[C@@]4(F)[C@@H](O)C[C@]3(C)[C@]2(C(=O)CO)O1 [Triamsinolone acetonide] | 7.32 | 7.52 | 1043.62 | 876.48 | 680.05 | –
C[C@@H]1C[C@H]2[C@@H]3CCC4=CC(=O)C=C[C@]4(C)[C@@]3(F)[C@@H](O)C[C@]2(C)[C@@]1(O)C(=O)CO [dexamethasone] | 7.45 | 7.10 | – | – | – | Solubility, Buffer solution ([3]; 25° C.): 0.008221%
Brc1cccc2c1oc1ccccc12 [4-bromadibenzofuran] | 793.72 | 1.61 | 426955.49 | 1693721.20 | 106519.51 | –
CC1(C)O[C@@H]2C[C@H]3[C@@H]4CCC5=CC(=O)C=C[C@]5(C)[C@H]4[C@@H](O)C[C@]3(C)[C@]2(C(=O)CO)O1 [Desonide] | 7.59 | 6.73 | 270.67 | 143.78 | 174.69 | Solubility, PEG400 ([3]; 25° C.): 1.031%; Solubility, PG (propylene glycol) ([3]; 25° C.): 1.253%; Solubility, Buffer solution ([3]; 25° C.): 0.007171%
COC1=CC(=O)C[C@@H](C)[C@]12Oc1c(Cl)c(OC)cc(OC)c1C2=O [Griseofulvin] | 15.19 | 14.31 | 309.31 | 1745.29 | 200.23 | Solubility, Ethanol ([3]; 25° C.): 0.2423%; Solubility, PEG400 ([3]; 25° C.): 1.367%; Solubility, PG (propylene glycol) ([3]; 25° C.): 0.1569%; Solubility, Buffer solution ([3]; 25° C.): 0.0007834%
COC(=O)Nc1nc2cc(C(=O)c3ccc(F)cc3)ccc2[nH]1 [Flubendazole] | 24.46 | 12.41 | 745.67 | 5882.38 | 1401.17 | Solubility, Ethanol [3]: 0.007308%
Cc1ccc(-c2cc(C(F)(F)F)nn2-c2ccc(S(N)(=O)=O)cc2)cc1 [Celecoxib] | – | – | – | – | – | Solubility, Ethanol ([3]; 25° C.): 10.24%
Cc1cn(-c2cc(NC(=O)c3ccc(C)c(Nc4nccc(-c5cccnc5)n4)c3)cc(C(F)(F)F)c2)cn1 [Nilotinib] | 144.99 | 31.62 | – | – | – | Solubility ratio of solvent with respect to buffer solution Ethanol/buffer solution [3]: 1623663.73; Solubility ratio of solvent with respect to buffer solution PEG400/buffer solution [3]: 7100339.79; Solubility ratio of solvent with respect to buffer solution PG/buffer solution [3]: 1437221.83
O=S([O-])[O-].[Na+].[Na+] [sodium sulfite] | – | – | – | – | – | stabilization of poloxamer 407 or PEG 4000 by the additive alone ([1]; four weeks at 60° C.): could not stabilize poloxamer 407 or PEG 4000
O=S([O-])S(=O)(=O)[O-].[Na+].[Na+] [sodium pyrosulfite] | – | – | – | – | – | stabilization of poloxamer 407 or PEG 4000 by the additive alone ([1]; four weeks at 60° C.): could not stabilize poloxamer 407 or PEG 4000
CC1(C)O[C@@H]2C[C@H]3[C@@H]4CCC5=CC(=O)C=C[C@]5(C)[C@@]4(F)[C@@H](O)C[C@]3(C)[C@]2(C(=O)CO)O1 [triamcinolone acetonide] | – | – | – | – | – | Solubility, Buffer solution ([3]; 25° C.): 0.001426%
CNC(=O)c1cc(Oc2ccc(NC(=O)Nc3ccc(Cl)c(C(F)(F)F)c3)cc2)ccn1 [Soraf ? nib] | 2355.97 | 450.47 | 4781694.68 | 7210696.23 | 4473505.75 | –
Cc1ccc(-c2cc(C(F)(F)F)nn2-c2ccc(S(N)(=O)=O)cc2)cc1 [Cel ? coxib] | 686.99 | 183.33 | 80774.38 | 371931.96 | 28507.07 | –
O=C1Nc2ccc(Cl)cc2[C@@](C#CC2CC2)(C(F)(F)F)O1 [Efavir ? nt] | 14.23 | 1.97 | 101607.44 | 96901.18 | 66368.13 | –
